“Also recorded” adds a separate entry of the source.
Biological target: T1, wild-type ENaC (Mus musculus, UniProt Q61180+Q9WU38+Q9WU39, DEL206-231)
T1 construct: expressed in transfected cells; host or cells: Xenopus laevis oocytes (cRNA injection)
T1 sequence (Q61180 with tags, fused parts or gaps DEL206-231): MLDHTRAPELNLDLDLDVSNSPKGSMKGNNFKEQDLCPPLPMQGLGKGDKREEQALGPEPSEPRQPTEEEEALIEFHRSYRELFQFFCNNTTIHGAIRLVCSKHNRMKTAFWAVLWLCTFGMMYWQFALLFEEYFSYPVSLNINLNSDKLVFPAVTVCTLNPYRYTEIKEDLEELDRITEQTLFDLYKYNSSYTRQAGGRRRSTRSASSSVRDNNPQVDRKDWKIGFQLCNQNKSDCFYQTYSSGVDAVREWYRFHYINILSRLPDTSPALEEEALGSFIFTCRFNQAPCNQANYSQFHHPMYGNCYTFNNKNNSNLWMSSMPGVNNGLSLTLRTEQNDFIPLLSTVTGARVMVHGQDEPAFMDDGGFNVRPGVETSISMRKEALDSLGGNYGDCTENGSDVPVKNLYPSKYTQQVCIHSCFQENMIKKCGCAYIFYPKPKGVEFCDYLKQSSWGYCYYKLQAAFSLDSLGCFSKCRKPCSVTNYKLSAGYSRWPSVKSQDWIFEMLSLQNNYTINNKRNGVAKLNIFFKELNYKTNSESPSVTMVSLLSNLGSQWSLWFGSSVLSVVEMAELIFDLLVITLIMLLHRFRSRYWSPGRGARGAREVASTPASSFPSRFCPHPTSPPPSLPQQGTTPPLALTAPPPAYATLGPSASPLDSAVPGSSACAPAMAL
T1 sequence (Q9WU38 1-638): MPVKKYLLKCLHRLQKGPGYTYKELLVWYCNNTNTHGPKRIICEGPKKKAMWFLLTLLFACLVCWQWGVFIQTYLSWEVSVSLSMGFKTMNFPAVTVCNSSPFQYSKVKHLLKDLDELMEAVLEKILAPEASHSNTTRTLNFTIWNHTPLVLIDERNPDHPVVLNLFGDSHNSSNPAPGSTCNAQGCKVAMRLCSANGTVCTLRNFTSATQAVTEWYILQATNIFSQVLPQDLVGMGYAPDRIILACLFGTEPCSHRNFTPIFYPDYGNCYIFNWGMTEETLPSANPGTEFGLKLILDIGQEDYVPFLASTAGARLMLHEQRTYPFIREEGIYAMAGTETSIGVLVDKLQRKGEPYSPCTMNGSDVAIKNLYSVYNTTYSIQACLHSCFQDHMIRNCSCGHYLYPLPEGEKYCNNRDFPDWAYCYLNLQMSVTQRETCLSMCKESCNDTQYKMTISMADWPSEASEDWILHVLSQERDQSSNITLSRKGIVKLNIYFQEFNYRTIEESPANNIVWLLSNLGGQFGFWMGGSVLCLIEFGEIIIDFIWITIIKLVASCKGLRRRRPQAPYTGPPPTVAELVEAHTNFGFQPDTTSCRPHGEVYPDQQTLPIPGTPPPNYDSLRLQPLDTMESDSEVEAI
T1 sequence (Q9WU39 1-655): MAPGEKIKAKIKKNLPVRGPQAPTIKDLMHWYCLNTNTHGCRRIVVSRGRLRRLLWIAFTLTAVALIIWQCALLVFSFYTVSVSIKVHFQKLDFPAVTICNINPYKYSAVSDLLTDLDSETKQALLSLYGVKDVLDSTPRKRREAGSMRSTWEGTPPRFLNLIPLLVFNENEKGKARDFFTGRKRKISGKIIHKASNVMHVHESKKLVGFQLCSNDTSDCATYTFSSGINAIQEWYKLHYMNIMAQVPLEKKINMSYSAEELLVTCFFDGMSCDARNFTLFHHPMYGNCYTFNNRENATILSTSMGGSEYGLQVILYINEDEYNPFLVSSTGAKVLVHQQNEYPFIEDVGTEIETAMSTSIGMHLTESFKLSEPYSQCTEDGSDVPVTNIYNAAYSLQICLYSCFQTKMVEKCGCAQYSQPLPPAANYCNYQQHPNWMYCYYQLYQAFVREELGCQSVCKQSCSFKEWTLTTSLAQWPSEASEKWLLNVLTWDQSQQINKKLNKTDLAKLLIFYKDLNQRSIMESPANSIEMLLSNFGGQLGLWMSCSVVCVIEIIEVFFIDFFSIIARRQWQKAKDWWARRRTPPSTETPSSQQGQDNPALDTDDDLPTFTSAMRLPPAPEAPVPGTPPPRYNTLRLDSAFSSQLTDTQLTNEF
Assay: Single channel cell-attached patch clamp in oocytes expressing wild-type ENaC, pipette back filled with peptide
Type: cell-based
Method: Single Channel Studies—Bath and pipette solutions contained (in mM) 110 LiCl, 2 CaCl2, 2 KCl, and 10 Hepes, pH 7.4. Experiments were performed as previously described (Carattino, M. D., Sheng, S., and Kleyman, T. R. (2005), Mutations in the pore region modify epithelial sodium channel gating by shear stress, J Biol. Chem. 280, 4393-4401 33). Single channel currents were recorded in the cell-attached configuration of patch clamp, acquired at 5 kHz and filtered at 1 kHz by a 4-pole low pass Bessel filter. Single channel currents were further filtered at 100-200 Hz with a Gaussian filter for display and analysis. Recordings were performed at an applied pipette potential of +60 mV.
For experiments performed with α-26, the tip of the pipette was filled with standard patch solution. Pipette resistances were similar in control (7.8±0.4 MΩ) and α-26-treated patches (6.9±0.6 MΩ) (p=0.30, unpaired t test). […] Unitary currents, at an applied pipette potential of +60 mV, were similar in both control (0.42±0.2 pA, n=5) and α-26-containing patches (0.39±0.2 pA, n=7) (p=0.32, unpaired t test). […] At the beginning of the experiment open times were similar to that observed in controls (FIG. 4B). Over the course of the experiment openings decreased and were shorter in duration compared with control until channels were fully closed. […]

Ac-DLRGALPHPLQRLRTPPPPNPARSAR-NH2 [α-26]
unitary currents (applied pipette potential +60 mV, α-26 10 μM in pipette): 0.39±0.2 pA | product of the number of channels and open probability (NPo) compared with controls (pipette backfilled with α-26 10 μM): reduces ENaC open probability; also recorded: reduction
